Each structure is given as a SMILES string.

Assay [1] has as its system U-insertion gRNA/pre-mRNA hybrid RNA (pre-cleaved) (RNA, duplex, 3'-end amino modification in two of the oligoribonucleotides used (which ones stated only in S1 Table)) GGAAGUAUGAGACGUAGG/AUUGGAGUUAUAG/CUAUAACUCCGAUAAACCUACGUCUCAUACUUCC
Description: circular dichroism titration, 273 nm. Particulars: Na+ (65 mM NaCl, 10 mM Na cacodylate); pH 6.8, 27°C; 12 μM RNA; neomycin up to 0.6 mM; A-form retained. On the technique in general: CD spectra are sensitive to the conformation of chiral molecules.

The subject of assay [2] is U-deletion gRNA/pre-mRNA hybrid RNA (pre-cleaved) (RNA, duplex, 3'-end amino modification in two of the oligoribonucleotides used (which ones stated only in S1 Table)) GGAAAGGGAAAGUUGUGAUUUU/GCGAGUUAUAGAAUA/GGUUCUAUAACUCGCUCACAACUUUCCCUUUCC
In words: circular dichroism titration, 273 nm. The note with it: Na+ (65 mM NaCl, 10 mM Na cacodylate); pH 6.8, 27°C; 12 μM RNA; neomycin up to 0.6 mM; A-form retained.

Assay [3] has as its system U-insertion gRNA/pre-mRNA hybrid RNA (pre-cleaved) (RNA, duplex, 3'-end amino modification in two of the oligoribonucleotides used (which ones stated only in S1 Table)) GGAAGUAUGAGACGUAGG/AUUGGAGUUAUAG/CUAUAACUCCGAUAAACCUACGUCUCAUACUUCC
Description: UV melting, 260 nm. The note with it: Na+ (5 mM Na cacodylate; NaCl not stated); pH 6.8; 1 μM RNA; neomycin 1.3 μM or 13 μM; two helices; 11–13 over both RNAs.

The test system is the same in assay [4]. In words: isothermal titration calorimetry. The note with it: 30 mM KCl, 10 mM Mg(OAc)2; 20 mM HEPES/KOH pH 7.5, 0.5 mM DTT, 27°C; 2 μM RNA; macroscopic, 3 sites.
Assay [5] concerns U-deletion gRNA/pre-mRNA hybrid RNA (pre-cleaved) (RNA, duplex, 3'-end amino modification in two of the oligoribonucleotides used (which ones stated only in S1 Table)) GGAAAGGGAAAGUUGUGAUUUU/GCGAGUUAUAGAAUA/GGUUCUAUAACUCGCUCACAACUUUCCCUUUCC
Description: isothermal titration calorimetry. The note with it: 30 mM KCl, 10 mM Mg(OAc)2; 20 mM HEPES/KOH pH 7.5, 0.5 mM DTT, 27°C; 2 μM RNA; macroscopic, 3 sites. (Isothermal titration calorimetry measures the heat released or taken up as one component is titrated into another.)

Assay [6] shares this test system. Description: UV melting, 260 nm. The note with it: Na+ (5 mM Na cacodylate; NaCl not stated); pH 6.8; 1 μM RNA; neomycin 1.3 μM or 13 μM; two helices; 11–13 over both RNAs.

Broadly, the Kd is the concentration at which binding is half-saturated. A low value points to a tighter complex. `NC[C@@H]1O[C@H](O[C@H]2[C@@H](O)[C@H](O[C@@H]3[C@@H](O)[C@H](N)C[C@H](N)[C@H]3O[C@H]3O[C@H](CN)[C@@H](O)[C@H](O)[C@H]3N)O[C@@H]2CO)[C@H](N)[C@@H](O)[C@@H]1O`: the binding entry in assay [1], in assay [2], in assay [3] and in assay [6] was “yes” in each case. Besides, the Kd in assay [4] was 1100 nM; in assay [5], 1000 nM.

Values taken from PMC4350841 (2015).
